In US11338007B2, “Combination formulation of three antiviral compounds” (priority 2016, dated 2022):

How the values were obtained:
[1] = Chemical and physical stability of Formulation G film-coated tablets Lots A and B (Tables 11A, 11B); assay type: physicochemical
Procedure: In some embodiments, the film-coated tablets were packaged in 75 and 100 mL white HDPE bottles (Lots A and B, respectively, as described in Tables 11A, 11B) with 1 g silica gel desiccant canisters and a polyester fiber coil. The 75 and 100 mL HDPE bottles contained fourteen and twenty eight tablets, respectively. Each HDPE bottle was capped using a continuous thread, child-resistant polypropylene screw cap with an […], aluminum-faced line. The packaged tablets (14 and 28 counts) were evaluated for stability at 40° C./75% RH and 25° C./60% RH. Additionally, the 14-count bottles (without cap) were evaluated for stability under open conditions at 40° C./75% RH.

[2] = Tablet dissolution as a function of medium pH and composition (FIGS. 13-15); assay type: physicochemical; settings: Formulation G tablets; independent of medium pH and composition
[3] = Stability of clinical film-coated tablets Batches A-D (Tables 14, 15A-15C); assay type: physicochemical; settings: for LS (%): tablets Batch C, 1 g desiccant
Procedure: FIGS. 10-12 depict additional dissolution profiles for the sofosbuvir/velpatasvir SSD/voxilaprevir SSD tablets having the formulation described in Table 13 and which were used in phase 1, 2, and 3 clinical studies, where the dissolution testing was conducted at pH 5.0 acetate buffer containing 2.0% w/v polysorbate 80. Four batches of the sofosbuvir/velpatasvir SSD/voxilaprevir SSD tablets were tested, with Batch A manufactured at 100 kg and Batches B, C and D manufactured at 145 kg. All other aspects of the formulation and manufacturing process were otherwise equivalent. The four batches were packed in the same commercial configuration: 28 count, 100 mL HPDE bottle with 1 g silica gel desiccant canister and a polyester fiber coil. […] Moreover, for Batch A, the amount dissolved at 30 min remained between 98 and 100% for sofosbuvir, between 90 and 92% for velpatasvir SSD, and between 89 and 93% for voxilaprevir SSD. […] For Batch D, the amount dissolved at 30 min remained at 100% for sofosbuvir, between 90 and 91% for velpatasvir SSD, and between 89 and 91% for voxilaprevir SSD. Release of velpatasvir SSD and voxilaprevir SSD from the sofosbuvir/velpatasvir SSD/voxilaprevir SSD tablets associated with all four Batches was complete after 60 minutes.
Stability data associated with the sofosbuvir/velpatasvir SSD/voxilaprevir SSD film-coated tablets (Batch A) are presented in Table 14. […] No upward trend in the content of degradation products was observed over the time period studied. The water content for packaged tablets remained between 1.9 and 2.3% through 6 months storage at 40° C./75% RH, 30° C./75% RH, and 25° C./60% RH. As summarized in Table 14, the packaged tablets (Batch A) were physically stable with no change in XRPD patterns after 6 months storage.
Stability data associated with the sofosbuvir/velpatasvir SSD/voxilaprevir SSD film-coated tablets (Batches B-D) are presented in Tables 15A-15C, respectively. […] No upward trend in the content of degradation products was observed over the time period studied. The water content for packaged tablets remained between 1.8 and 2.3% through 6 months storage at 40° C./75% RH, 30° C./75% RH, and 25° C./60% RH. The packaged tablets were physically stable with no change in XRPD patterns after 6 months storage.
For Batch D, the packaged tablets had acceptable chemical stability for up to 1 month under all conditions with total impurities/degradation products of sofosbuvir remaining at 0.0%, velpatasvir SSD remaining between 0.7 and 0.8%, and voxilaprevir SSD remaining at 0.0%. No upward trend in the content of degradation products was observed over the time period studied. The water content for packaged tablets remained between 1.9 and 2.3% through 1 month storage at 40° C./75% RH, 30° C./75% RH, and 25° C./60% RH.

HCV RNA = assay: Emax PK/PD modeling of sofosbuvir dose (HCV RNA change from baseline); assay type: in vivo, human; settings: mean major metabolite AUCtau for 400 mg dose
Procedure: The sofosbuvir dose selected for the tablet formulation is 400 mg once daily. Support for the 400 mg sofosbuvir dose can be derived from Emax PK/PD modeling with early virological and human exposure data which also supports the selection of a 400 mg sofosbuvir dose over others tested.
The mean sofosbuvir major metabolite AUCtau for the 400 mg sofosbuvir dose is associated with approximately 77% of the maximal HCV RNA change from baseline achievable as determined by this model, a value which is on the cusp of the plateau of the exposure-response sigmoidal curve. In a sigmoidal Emax model, there is a relatively linear exposure-response relationship in the 20 to 80% maximal effect range. Therefore, given that sofosbuvir exposure with 200 mg tablets appears dose-proportional with single doses up to 1200 mg, doses below 400 mg are expected to yield considerable reductions in the magnitude of HCV RNA change from baseline.

[4] = Batch A, 25° C./60% RH, 3 months
[5] = Batch A, 25° C./60% RH, 6 months
[6] = Batch A, 30° C./75% RH, 3 months
[7] = Batch A, 30° C./75% RH, 6 months
[8] = Batch A, 40° C./75% RH, 1 month
[9] = Batch A, 40° C./75% RH, 3 months
[10] = Batch A, 40° C./75% RH, 6 months

CC(C)OC(=O)C(C)N[P@](=O)(OC[C@H]1O[C@@H](n2ccc(=O)[nH]c2=O)[C@](C)(F)[C@@H]1O)Oc1ccccc1 (stereo in doubt) [sofosbuvir, (S)-isopropyl 2-(((S)-(((2R,3R,4R,5R)-5-(2,4-dioxo-3,4-dihydropyrimidin-1(2H)-yl)-4-fluoro-3-hydroxy-4-methyltetrahydrofuran-2-yl)methoxy)(phenoxy)phosphoryl)amino)propanoate]
total impurities/degradation products ([1]; Formulation G tablets, open conditions at 40° C./75% RH for 6 months): 0.0%
Total Imp./Deg. ([1]; Lot A (14 ct), 25° C./60% RH Closed, 1 month): 0.0%
Total Imp./Deg. ([1]; Lot A (14 ct), 25° C./60% RH Closed, 3 months): 0.0%
Total Imp./Deg. ([1]; Lot A (14 ct), 25° C./60% RH Closed, 6 months): 0.0%
Total Imp./Deg. ([1]; Lot A (14 ct), 40° C./75% RH Closed, 1 month): 0.0%
Total Imp./Deg. ([1]; Lot A (14 ct), 40° C./75% RH Closed, 3 months): 0.0%
Total Imp./Deg. ([1]; Lot A (14 ct), 40° C./75% RH Closed, 6 months): 0.0%
Total Imp./Deg. ([1]; Lot A (14 ct), 40° C./75% RH Open, 1 month): 0.0%
Total Imp./Deg. ([1]; Lot A (14 ct), 40° C./75% RH Open, 3 months): 0.0%
Total Imp./Deg. ([1]; Lot A (14 ct), 40° C./75% RH Open, 6 months): 0.0%
Total Imp./Deg. ([1]; Lot A (14 ct), Initial): 0.0%
Total Imp./Deg. ([1]; Lot B (28 ct), 25° C./60% RH Closed, 1 month): 0.0%
Total Imp./Deg. ([1]; Lot B (28 ct), 25° C./60% RH Closed, 3 months): 0.0%
Total Imp./Deg. ([1]; Lot B (28 ct), 25° C./60% RH Closed, 6 months): 0.0%
Total Imp./Deg. ([1]; Lot B (28 ct), 40° C./75% RH Closed, 1 month): 0.0%
Total Imp./Deg. ([1]; Lot B (28 ct), 40° C./75% RH Closed, 3 months): 0.0%
Total Imp./Deg. ([1]; Lot B (28 ct), 40° C./75% RH Closed, 6 months): 0.0%
Total Imp./Deg. ([1]; Lot B (28 ct), Initial): 0.0%
total impurities/degradation products ([1]; packaged Formulation G tablets, 40° C./75% RH and 25° C./60% RH for 6 months): 0.0%
dissolution complete within [2]: ≤ 20 min
LS [3, 4]: 102.7%
Total Imp./Deg. [3, 4]: 0.0%
LS [3, 5]: 99.0%
Total Imp./Deg. [3, 5]: 0.0%
LS [3, 6]: 100.3%
Total Imp./Deg. [3, 6]: 0.0%
LS [3, 7]: 98.1%
Total Imp./Deg. [3, 7]: 0.0%
LS [3, 8]: 99.7%
Total Imp./Deg. [3, 8]: 0.0%
LS [3, 9]: 101.7%
Total Imp./Deg. [3, 9]: 0.0%
LS [3, 10]: 98.7%
Total Imp./Deg. [3, 10]: 0.0%
LS ([3]; Batch A, Initial): 99.0%
Total Imp./Deg. ([3]; Batch A, Initial): 0.0%
total impurities/degradation products ([3]; Batch A, up to 6 months under all conditions): 0.0%
LS ([3]; Batch B, 25° C./60% RH, 3 months): 100.7%
LS ([3]; Batch B, 25° C./60% RH, 6 months): 100.1%
LS ([3]; Batch B, 30° C./75% RH, 3 months): 98.4%
LS ([3]; Batch B, 30° C./75% RH, 6 months): 98.8%
LS ([3]; Batch B, 40° C./75% RH, 1 month): 101.7%
LS ([3]; Batch B, 40° C./75% RH, 3 months): 99.8%
LS ([3]; Batch B, 40° C./75% RH, 6 months): 99.0%
LS ([3]; Batch B, Initial): 100.0%
Total Imp./Deg. ([3]; Batch B, Initial): 0.0%
LS ([3]; Batch D, 40° C./75% RH, 1 month): 99.7%
LS ([3]; Batch D, Initial): 99.8%
total impurities/degradation products ([3]; Batch D, up to 1 month under all conditions): 0.0%
total impurities/degradation products ([3]; Batches B and C, up to 6 months under all conditions): 0.0%
LS (%) ([3]; 25° C./60% RH, 3 months): 98.9%
LS (%) ([3]; 25° C./60% RH, 6 months): 98.8%
LS (%) ([3]; 30° C./75% RH, 3 months): 100.1%
LS (%) ([3]; 30° C./75% RH, 6 months): 99.1%
LS (%) ([3]; 40° C./75% RH, 1 month): 101.1%
LS (%) ([3]; 40° C./75% RH, 3 months): 99.4%
LS (%) ([3]; 40° C./75% RH, 6 months): 98.9%
LS (%) ([3]; Initial, time 0): 99.1%
maximal HCV RNA change from baseline achievable (Emax model) (HCV RNA): approximately 77%
